Source: US10137210B2, “Thioflavin derivatives for use in antemortem diagnosis of Alzheimer's disease and in vivo imaging and prevention of amyloid deposition” (UNIVERSITY OF PITTSBURGH—OF THE COMMONWEALTH SYSTEM OF …, priority 2000, dated 2018)
Entries after “also recorded” stand apart in the source; their conditions may differ. Like-named read-outs stand apart in the source and are kept apart here.

How the values were obtained:
[1] = Partitioning between octanol and phosphate-buffered saline (logP)
[2] = In vivo brain uptake and retention in mice; parameters: species or system mouse; settings: for Mouse Brain Uptake @ 2 min / Mouse Brain Uptake @ 30 min: 11C-labeled compound; for 2 min (% ID/g): brain uptake at 2 min; for 2 min (% ID/g) / 30 min (% ID/g): Table 1 lower part; for 30 min (% ID/g): brain uptake at 30 min
Text: In Table 1 below are five different ^11C-labeled BTA derivatives where their in vitro binding properties, log P values, and in vivo brain uptake and retention properties in mice have been determined.

Aβ(1-40) fibrils = Aβ(1-40) fibrils (Homo sapiens (Human), UniProt P05067); assay: [N-methyl-11C]BTA-1 binding assay with Aβ(1-40) fibrils
Chain of Aβ(1-40) fibrils (P05067 672-711): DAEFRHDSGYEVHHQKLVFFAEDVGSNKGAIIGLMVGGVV

[3] = system: plaques and tangles in post-mortem AD brain; assay: Preliminary tissue staining of post-mortem AD brain with ThT and derivatives; assay type: binding, human; settings: for staining of plaques and tangles in AD brain: post-mortem AD brain, fluorescence; for staining detectable at low concentration of staining solution: staining solutions containing only 10 nM of the BTA compound
Text: Thus, in the development of these compounds, tissue staining has served the dual purpose of assessing specificity of staining in AD brain tissue as well as assessing binding affinity by screening staining solutions over a range of concentrations similar to that employed in the binding assays.

[4] = system: Aβ and tau deposits in brain homogenates; assay: [3H]BTA-1 binding to brain homogenates (AD brain and Braak stage II control brain); parameters: species or system human
Text: This control brain had frequent numbers of NFT in the entorhinal cortex (FIG. 5A), but no neuritic or diffuse plaques in any area of the brain (FIG. 11C). The NFT numbers in the EC of Cntl 04 were similar to the numbers found in many AD cases (FIG. 11B).

[5] = biological target: Aβ amyloid plaques and cerebrovascular amyloid (Homo sapiens (Human), UniProt P05067); assay: In vivo labeling of amyloid deposits in PS1/APP transgenic mice, multiphoton microscopy; parameters: species or system mouse; settings: 10 mg/kg ip, imaged 24 hours later, living PS1/APP mice
Chain of Aβ amyloid plaques and cerebrovascular amyloid (P05067 672-713): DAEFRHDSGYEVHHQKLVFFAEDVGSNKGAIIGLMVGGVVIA
Text: Twenty-four hours later, multiphoton fluorescence microscopy was employed to obtain high resolution images in the brains of living mice using a cranial window technique.

[6] = biological target: amyloid deposits in PS1/APP mouse brain (Homo sapiens (Human), UniProt P05067); assay: Staining of transgenic PS1/APP mouse brain sections with unlabeled BTA-1; assay type: binding
Chain of amyloid deposits in PS1/APP mouse brain (P05067 672-713): as above
Text: The PS1/APP mouse model combines two human gene mutations known to cause Alzheimer's disease in a doubly transgenic mouse which deposits Aβ fibrils in amyloid plaques in the brain beginning as early as 3 months of age. […] NFT have not been observed in transgenic mouse models of amyloid deposition.

[7] = system: amyloid deposits in postmortem AD brain; assay: Staining of postmortem AD brain tissue sections with unlabeled BTA-1; assay type: binding, human
[8] = In vivo PET brain imaging in baboons; settings: normal baboon brain, 5-15 min post injection, 3 mCi i.v.
Experimental: Brain imaging studies were conducted following the intravenous injection of 3-5 mCi of radiotracer. Typical attenuation- and decay-corrected time-activity curves for a frontal cortex region of interest for each of the three compounds are shown in FIG. 6. It is noted that the absolute brain uptake of these 3 compounds in baboons is very similar to that in mice (i.e., about 0.47 to 0.39%ID/g*kg). […] The rank order of maximum brain uptake and clearance rate of the three compounds were also the same in mice and baboons. […] Typical amounts of unmetabolized injectate in plasma for all three compounds were about: 90% at 2 minutes; 35% at 30 minutes; and 20% at 60 minutes.
The emission files collected 5-15 min post injection were summed to provide the images. Brain regions include: Ctx (cortex); Thl (thalamus); Occ (occipital cortex); and Cer (cerebellum).

synthetic Aβ(1-40) = synthetic Aβ(1-40) (Homo sapiens (Human), UniProt P05067); assay: Competitive binding with [3H]CG and synthetic Aβ(1-40)
Chain of synthetic Aβ(1-40) (P05067 672-711): as the sequence (P05067 672-711) above

[9] = Table 1, upper part, read-out: Ki (nM) to Aβ fibrils
[10] = Table 1, lower part, read-out: Ki
[11] = competition for Aβ sites, FIG. 5 right panel, read-out: Ki

Cc1ccc2nc(-c3ccc(N[11CH3])cc3)sc2c1
logP [1]: 3.3
Mouse Brain Uptake @ 2 min [2]: 0.32 ± 0.07 % ID/g * kg
Mouse Brain Uptake @ 30 min [2]: 0.17 ± 0.05 % ID/g * kg

Cc1ccc2nc(-c3ccc(N(C)[11CH3])cc3)sc2c1
Mouse Brain Uptake @ 2 min [2]: 0.15 ± 0.06 % ID/g * kg
Mouse Brain Uptake @ 30 min [2]: 0.16 ± 0.02 % ID/g * kg
Ratio of 2 min/30 min Uptake Values ([2]; mouse brain): 0.9
logP (physchem): 3.9

COc1ccc2nc(-c3ccc(N[11CH3])cc3)sc2c1
Mouse Brain Uptake @ 2 min [2]: 0.43 ± 0.11 % ID/g * kg
Mouse Brain Uptake @ 30 min [2]: 0.094 ± 0.038 % ID/g * kg
Ratio of 2 min/30 min Uptake Values ([2]; mouse brain): 4.6
logP (physchem): 2.7
Ki (Aβ(1-40) fibrils; [9]): 5.7 nM

COc1ccc2nc(-c3ccc(N(C)[11CH3])cc3)sc2c1
Mouse Brain Uptake @ 2 min [2]: 0.32 ± 0.09 % ID/g * kg
Mouse Brain Uptake @ 30 min [2]: 0.42 ± 0.10 % ID/g * kg
Ratio of 2 min/30 min Uptake Values ([2]; mouse brain): 0.8
logP (physchem): 3.3
Ki (Aβ(1-40) fibrils; [9]): 2.3 nM

[11CH3]Nc1ccc(-c2nc3ccccc3s2)cc1
Mouse Brain Uptake @ 2 min [2]: 0.44 ± 0.14 % ID/g * kg
Mouse Brain Uptake @ 30 min [2]: 0.057 ± 0.010 % ID/g * kg
logP (physchem): 2.7

Nc1ccc(-c2nc3ccccc3s2)cc1[125I]
2:30 min ratio ([2]; Table 1, lower part): 2.7
2 min (% ID/g) [2]: 9.08 % ID/g
30 min (% ID/g) [2]: 3.4 % ID/g
logP (physchem): 3.17
Ki (Aβ(1-40) fibrils; [10]): 8.32 nM

Nc1ccc(-c2nc3ccc(O)cc3s2)cc1[125I]
2 min (% ID/g) [2]: 5.64 % ID/g
30 min (% ID/g) [2]: 0.36 % ID/g
logP (physchem): 1.65
Ki (Aβ(1-40) fibrils; [10]): 11.1 nM

Cc1ccc2nc(-c3ccc(N)cc3)sc2c1 [6-Me-BTA-0, 2-(4′-aminophenyl)-6-methyl-benzothiazole]
staining of plaques and tangles in AD brain [3]: stain plaques and tangles
staining detectable at low concentration of staining solution [3]: could still be detected

CNc1ccc(-c2nc3ccc(C)cc3s2)cc1 [6-Me-BTA-1]
staining detectable at low concentration of staining solution [3]: could still be detected

Cc1ccc2nc(-c3ccc(N(C)C)cc3)sc2c1 [6-Me-BTA-2, 2-(4′-dimethylaminophenyl)-6-methyl-benzothiazole]
staining of plaques and tangles in AD brain [3]: stain plaques and tangles

COc1ccc2nc(-c3ccc(N)cc3)sc2c1 [6-MeO-BTA-0, 6-Methoxy-2-(4-aminophenyl)benzothiazole]
brain clearance ([2]; mouse brain): poor brain clearance

Nc1ccc(-c2nc3ccccc3s2)cc1 [BTA-0, 2-(4-Aminophenyl)benzothiazole]
Ki (Aβ(1-40) fibrils; [11]): 100 ± 16 nM

CNc1ccc(-c2nc3ccccc3s2)cc1 [BTA-1, 2-(4-Methylaminophenyl)benzothiazole]
binding in cerebellum and entorhinal cortex ([4]; Braak VI AD brain): low binding
binding in frontal gray versus cerebellum and entorhinal cortex ([4]; Braak VI AD brain): over ten-fold higher levels
binding in NFT-rich entorhinal cortex versus cerebellum and frontal gray ([4]; Braak stage II control brain (Cntl 04)): no greater than
in vivo labeling of plaques and cerebrovascular amyloid [5]: plaques and cerebrovascular amyloid are clearly distinguishable
staining of amyloid plaques ([6]; 8 month old PS1/APP mouse brain tissue): clearly visible
staining of cerebrovascular amyloid ([6]; FIG. 8, right): brightly stained
staining of neurofibrillary tangles (NFT) ([7]; AD brain, FIG. 8, left): more faintly stained
staining of amyloid plaques ([7]; postmortem AD brain tissue): clearly visible
specific binding (Aβ(1-40) fibrils; 200 nM Aβ(1-40) fibrils): ~70%
distribution of radioactivity in brain (PET) [8]: uniform distribution of radioactivity throughout the brain

CN(C)c1ccc(-c2nc3ccccc3s2)cc1 [BTA-2, 2-(4-dimethylaminophenyl)benzothiazole]
Ki (Aβ(1-40) fibrils; [11]): 3 ± 0.8 nM

c1ccc(-c2nc3ccccc3s2)cc1 [BTP, 2-phenylbenzothiazole, reference compound]
staining of plaques and tangles in AD brain [3]: does not appear to stain plaques

Cc1ccc2c(c1)sc(-c1ccc(N(C)C)cc1)[n+]2C.[Cl-] [ThT, Thioflavin T, reference compound]
log of the partition coefficient, logPoct ([1]; octanol / phosphate-buffered saline): 0.57
staining of plaques and tangles in AD brain [3]: weakly stains plaques
competition with [3H]CG for binding sites on Aβ(1-40) (synthetic Aβ(1-40)): lack of competition; also recorded: did not

Thioflavin S [ThS]
competition with [3H]CG for binding sites on Aβ(1-40) (synthetic Aβ(1-40)): competed
